The text below walks through data of ChEMBL document CHEMBL1201862, “PubChem BioAssay data set” (2004).

Among the test systems are RXF 393; UACC-62; HOP-62; Malme-3M; A549; SK-MEL-28; SNB-19; HL-60; SF-268; ACHN; A498; SK-MEL-2; SW-620; UACC-257; OVCAR-3; SF-295; HT-29.
Holding throughout (test): inhibition of tumour cell growth, NCI panel, 48 h

Molecules are shown by their SMILES.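 How tested: cells in 96-well plates exposed to compound for 48 hours at five concentrations. The concentration for 50% growth inhibition is given as GI50.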 Calls of active or inactive are those of the source. No stated cut-off is given here; in the data, active = GI50 up to about 1.1 µM and inactive = higher.

With `CC(=O)OC1(C#N)CC2OC1C1NC21` (stereo unspecified), the GI50 in the experiment on RXF 393, in the experiment on UACC-62, with HOP-62, with Malme-3M, with A549 and in the experiment with SK-MEL-28 was > 100 µM (inactive) each time. Besides, the GI50 in the experiment on SNB-19, in the experiment on HL-60, in the experiment on SF-268, in the experiment on ACHN, in the experiment with A498 and with SK-MEL-2 was > 100 µM (inactive) in each case. The GI50 with SW-620 was > 100 µM (inactive).

Consider `N#CC(C(=N/O)/C(=N/O)C(C#N)c1ccc(Cl)cc1)c1ccc(Cl)cc1` (stereo unspecified), for which the GI50 in the experiment with RXF 393 was 46.7 µM (inactive); in the experiment with UACC-62, 91.4 µM (inactive); with HOP-62, > 100 µM (inactive); in the experiment on Malme-3M, > 100 µM (inactive); with UACC-257 it was > 100 µM (inactive); in the experiment with A549 it was > 100 µM (inactive). Further, the GI50 in the experiment on SK-MEL-28, in the experiment on OVCAR-3, in the experiment with SNB-19, with SF-295, in the experiment with SF-268 and with ACHN was > 100 µM (inactive) in each case. The GI50 with A498 is > 100 µM (inactive); in the experiment with SK-MEL-2, > 100 µM (inactive); with SW-620, 76.7 µM (inactive); in the experiment on HT-29, > 100 µM (inactive).

Turning to `Cc1ccc(S(=O)(=O)NC2CCCCO2)cc1` (stereo unspecified), the GI50 with RXF 393, with UACC-62, in the experiment on HOP-62, with Malme-3M, in the experiment with UACC-257 and with A549 was > 100 µM (inactive) in each case. For the same compound, the GI50 in the experiment with SK-MEL-28, with OVCAR-3, in the experiment with SNB-19, in the experiment with SF-268, in the experiment with ACHN and in the experiment with A498 was > 100 µM (inactive) throughout. Moreover, the GI50 in the experiment with SW-620 and in the experiment on HT-29 was > 100 µM (inactive) throughout.

For `O=c1cccccc1NCCCCNc1cccccc1=O`, the GI50 in the experiment with UACC-62 was 72.6 µM (inactive); in the experiment with HOP-62, > 100 µM (inactive); in the experiment on Malme-3M it was 29.4 µM (inactive); with UACC-257, > 100 µM (inactive); in the experiment on A549, 59.2 µM (inactive); with SK-MEL-28, 71.1 µM (inactive). Moreover, the GI50 in the experiment with OVCAR-3 was > 100 µM (inactive); with SNB-19, 61 µM (inactive); in the experiment with SF-295 it was > 100 µM (inactive); in the experiment on HL-60, 49.7 µM (inactive); in the experiment with SF-268, 41.4 µM (inactive); in the experiment on ACHN it was 54.8 µM (inactive). For the same compound, the GI50 was > 100 µM (inactive) in the experiment with A498, > 100 µM (inactive) with SK-MEL-2, 67.6 µM (inactive) in the experiment on SW-620 and > 100 µM (inactive) in the experiment on HT-29.

Turning to `CN[C@H](C)[C@@H](OC)c1ccccc1`, the GI50 in the experiment with RXF 393, in the experiment on UACC-62, with HOP-62, in the experiment with Malme-3M, with UACC-257 and in the experiment with A549 was > 100 µM (inactive) each time. The GI50 in the experiment on SK-MEL-28, in the experiment on OVCAR-3, in the experiment on SNB-19, in the experiment on SF-295, in the experiment with HL-60 and in the experiment with ACHN was > 100 µM (inactive) in each case. In addition, the GI50 in the experiment on SK-MEL-2, in the experiment on SW-620 and with HT-29 was > 100 µM (inactive) throughout.

`N=C(N)NS(=O)(=O)c1ccc(NCc2c3ccccc3[n+]([O-])c3ccccc23)cc1`: the GI50 was 22.5 µM (inactive) in the experiment on UACC-62; 15.9 µM (inactive) with HOP-62; 20 µM (inactive) in the experiment on Malme-3M; 74.6 µM (inactive) with UACC-257; 17.6 µM (inactive) with A549; 20.4 µM (inactive) in the experiment with SK-MEL-28. In addition, the GI50 with OVCAR-3 is 46.1 µM (inactive); in the experiment on SNB-19, 18.8 µM (inactive); in the experiment with SF-295 it was 18.7 µM (inactive); in the experiment on HL-60, 6.08 µM (inactive); in the experiment with SF-268, 11.8 µM (inactive); with ACHN it was 17 µM (inactive). Also, the GI50 was 13.6 µM (inactive) with A498, 40.2 µM (inactive) with SK-MEL-2, 16.4 µM (inactive) in the experiment with SW-620 and 41.5 µM (inactive) in the experiment with HT-29.

Consider `Cc1ccc(C)c(NC(=O)c2cccc([N+](=O)[O-])c2O)c1`, for which the GI50 was 0.871 µM (active) with RXF 393; 5.74 µM (inactive) in the experiment on UACC-62; 15.8 µM (inactive) in the experiment with HOP-62; 17.8 µM (inactive) in the experiment on Malme-3M; 16.1 µM (inactive) in the experiment on UACC-257; 25.5 µM (inactive) in the experiment on A549. Also, the GI50 in the experiment with SK-MEL-28 is 27.1 µM (inactive); with OVCAR-3, 27.1 µM (inactive); in the experiment on SNB-19 it was 34.4 µM (inactive); in the experiment on SF-295, 18.4 µM (inactive); in the experiment on HL-60 it was > 100 µM (inactive); in the experiment on SF-268, 22 µM (inactive). Further, the GI50 with ACHN was 15.1 µM (inactive); in the experiment on A498, 24 µM (inactive); in the experiment on SW-620 it was 37.6 µM (inactive); in the experiment on HT-29, 26.1 µM (inactive).

On to `O=C(CCc1nnc2s/c(=C\c3ccccc3[N+](=O)[O-])c(=O)n12)Nc1cc(Cl)c(Cl)cc1Cl`, for which the GI50 in the experiment with RXF 393 was 22 µM (inactive); in the experiment on UACC-62, 40.4 µM (inactive); in the experiment on HOP-62, 23.1 µM (inactive); in the experiment with Malme-3M, 48.2 µM (inactive); in the experiment on UACC-257, 63.4 µM (inactive); in the experiment on A549, 30.5 µM (inactive). Moreover, the GI50 was 92.9 µM (inactive) with SK-MEL-28; 18.2 µM (inactive) in the experiment with OVCAR-3; 30.1 µM (inactive) with SNB-19; 18.7 µM (inactive) in the experiment on SF-295; 26.5 µM (inactive) in the experiment with SF-268; 35.8 µM (inactive) with ACHN. The GI50 was 20.4 µM (inactive) in the experiment on A498, 92.7 µM (inactive) in the experiment with SK-MEL-2, > 10 µM (inactive) in the experiment on SW-620 and 35.2 µM (inactive) in the experiment on HT-29.

On to `Nc1ccccc1S(=O)(=O)N(CC(=O)O)c1ccccc1`, for which the GI50 in the experiment with RXF 393, in the experiment on UACC-62, in the experiment on Malme-3M, in the experiment on UACC-257, in the experiment with A549 and in the experiment on SK-MEL-28 was > 100 µM (inactive) in each case. Also, the GI50 in the experiment with SNB-19, in the experiment on HL-60, in the experiment on SF-268, with ACHN, in the experiment on A498 and in the experiment with SK-MEL-2 was > 100 µM (inactive) throughout. Besides, the GI50 in the experiment on SW-620 and in the experiment on HT-29 was > 100 µM (inactive) each time.
